{
  "source": "paper PMC10786692",
  "about": "(The Journal of Clinical Investigation, 2024)",
  "key": {"[1]": {"test": "Dose-limiting toxicity, MTD and RP2D determination", "type": "in vivo", "conditions": "for Number of DLT: 3 evaluable; for Patients with DLT / number of DLT: 6 evaluable", "protocol": "For part A (dose escalation; Figure 1, A and B), the starting dose of 20 mg was selected based on animal toxicity studies. Dosing was continuous, and escalation used a modified Fibonacci method. Initial dose escalation was planned in single patient cohorts, changing to 3+3 design after the first grade-2 toxicity was seen. […] DLT definitions are in the Supplemental Methods.\nFor part B, all patients received the RP2D as defined for part A. Part B allowed for different schedules (continuous/intermittent) to be assessed. Initially, a continuous dosing schedule was used for the first 6 patients. […] Pretreatment biopsy was mandatory in part B. DNA-Seq of archival tumor material or review of external tumor sequencing was used to enrich for patients with putative genomic markers of sensitivity to ATRi, based on preclinical data, including oncogene amplification or driver mutation, ATM/G1 pathway defects (alteration in ATM, CHK2, or other components of the pathway causing G1 cell-cycle arrest after DNA damage), SWI/SNF (switch/sucrose nonfermentable, a chromatin-remodeling complex) pathway defect, genomic instability/homologous recombination deficit (HRD), or defect in a gene synthetically lethal with ATRi in published data ([46], [47]) (Figure 1B and Supplemental Table 3). […]\nCriteria for Dose Limiting Toxicity\n1. Hematological toxicity\n1. Grade 3 thrombocytopenia with bleeding\n2. Grade 4 thrombocytopenia\n3. Grade 4 neutropenia lasting >7 days in the absence of growth factor […]\nand/or systemic infection\n5. Any other grade ≥4 hematological toxicity\n2. Cardiovascular toxicity\n1. Clinically significant hypotension defined as an asymptomatic fall in systolic blood pressure more than 20mmHg to below 70mmHg persisting for at least 10 minutes\n2. Symptomatic orthostatic fall in systolic blood pressure of more than 20mmHg compared to resting supine blood pressure\n3. Prolongation of QTc >0.5 seconds (using an appropriate correction […]\n3. Gastrointestinal/hepatic toxicity\n1. ALT or AST >5 times ULN; ALP >5 times ULN with elevated gamma- GT\n2. ALT or AST >3 times ULN (or ALP >3 times ULN with elevated gamma-GT) with the appearance of symptoms associated with a clinical diagnosis of hepatitis including right upper quadrant pain or tenderness, fever, rash, or eosinophilia (>5%)\n3. [ALT or AST >3 times ULN] and [total bilirubin >2 times ULN] or INR >1.5x ULN (unless patient receiving warfarin) (or other evidence of impaired liver synthetic function)\n4. Any other grade 3-4 non-hematological toxicity occurring during the time period from the first dose to the end of the first cycle\n2. Excluding grade 3 nausea or vomiting if ameliorated by medical management\n3. Excluding grade 3 fatigue unless there is an increase by 2 grades from baseline\n5. Any dose in cycle 1, or the start of cycle 2, delayed by more than 7 days due to toxicity or patient unable to complete cycle 1 at the planned dose due to toxicity (parts A and B only)\n6. Any other toxicity that is greater than baseline, is clinically significant and/or unacceptable, does […]\nis considered to be dose-limiting by the investigators."}, "tumor biopsies [2]": {"test_system": "tumor biopsies", "test": "Stromal TIL count (H&E) and PD-L1 IHC in tumor biopsies", "type": "in vivo, human", "text": "Supplementary Pharmacodynamic methods\nFormalin fixed paraffin-embedded tumor samples were used. […]\nQuantification of tumor-infiltrating lymphocytes was done using a semi-automated method in QuPath (53). Scanned H&E sections were first segmented into tumor and stroma, using a random trees machine-learning classifier, for each tumor section. Nuclei were segmented using Stardist (54), then stromal nuclei were sorted by size (area <20 µm2) and circularity (>0.85), using small circular nuclei to approximate lymphocyte"}, "tumor biopsies [3]": {"test_system": "tumor biopsies", "test": "RNA-Seq differential gene expression / GSEA of paired tumor biopsies", "type": "in vivo, human", "conditions": "after 2 weeks of ceralasertib", "protocol": "Eight paired tumor biopsies were analyzed from 3 patients with PR, 4 with SD, and 1 NE, treated at various dose levels. Additional baseline samples were also available for 1 PR and 1 SD. When all samples were considered together, there were few differences in differential gene expression between baseline and on-treatment biopsies (Figure 5A). However, when responders (PR) were compared with nonresponders (SD), there were marked differences in both baseline and on-treatment gene expression (Figure 5, B–E) with clustering of a number of differentially expressed genes according to response (Supplemental Figure 8). […]\nFormalin fixed paraffin-embedded tumor samples were used. […] H-score was calculated using HALO image analysis (Indica Labs). […] Nuclear ATM (Abcam 32420) IHC staining was carried out on the Ventana autostainer, using DAB detection and assessed by H-score, but samples were only deemed acceptable if lymphocyte staining (internal control) was at least 2+ (moderate) intensity. Cyclin E1 (Invitrogen HE12) staining was carried out on the Ventana autostainer, using DAB detection and the H-score was quantified using HALO image analysis (Indica Labs). Ki67 (Mib-1, Dako M7240) was scored by percent nuclear positivity using a global unweighted method, scoring 4 areas of 100 cells. […] Quantification of tumor-infiltrating lymphocytes was done using a semi-automated method in QuPath (53). […]"}},
  "data": [
    {"smiles": "C[C@@H]1COCCN1c1cc(C2([S@](C)(=N)=O)CC2)nc(-c2cc[nH]c3nccc2-3)n1", "note": "[ceralasertib]", "values": [
      {"measurement": "Number of DLT", "setting": "[1]; 20 mg BD", "result": 0},
      {"measurement": "Number of DLT", "setting": "[1]; 40 mg BD", "result": 0},
      {"measurement": "Patients with DLT / number of DLT", "setting": "[1]; 80 mg BD", "result": 1},
      {"measurement": "Patients with DLT / number of DLT", "setting": "[1]; 240 mg BD", "result": 3},
      {"measurement": "Recommended phase 2 dose (RP2D)", "setting": "[1]; BD (twice daily), intermittent: 2 weeks on, 2 weeks off, 4-weekly cycle", "result": 160, "unit": "mg"},
      {"measurement": "Maximum tolerated dose", "setting": "[1]; BD, continuous dosing, dose escalation", "result": 160, "unit": "mg"},
      {"measurement": "Stromal TILs, paired samples", "setting": "tumor biopsies [2]; a responding patient (not in 3 nonresponders)", "result": "appeared to increase"},
      {"measurement": "Immune-cell infiltration and PD-L1 staining on immune cells in paired biopsies", "setting": "tumor biopsies [2]; responding patient, 40 mg BD, HNSCC, 2 weeks", "result": "increase"},
      {"measurement": "Inflammatory response genes (GSEA), on-treatment versus baseline tumor samples", "setting": "tumor biopsies [3]", "result": "enrichment"}
    ]}
  ]
}
